From publication PMC2827632 (Biochemistry, 2010)
Like-named read-outs stand apart in the source and are kept apart here.

Columns and labels:
[1] = target: T1, human Lpd (Homo sapiens, UniProt P09622); assay: Human Lpd DTNB assay; assay type: biochemical; conditions: for Inhibition of human Lpd (words): concentrations up to 100 μM
T1 sequence (P09622 36-509): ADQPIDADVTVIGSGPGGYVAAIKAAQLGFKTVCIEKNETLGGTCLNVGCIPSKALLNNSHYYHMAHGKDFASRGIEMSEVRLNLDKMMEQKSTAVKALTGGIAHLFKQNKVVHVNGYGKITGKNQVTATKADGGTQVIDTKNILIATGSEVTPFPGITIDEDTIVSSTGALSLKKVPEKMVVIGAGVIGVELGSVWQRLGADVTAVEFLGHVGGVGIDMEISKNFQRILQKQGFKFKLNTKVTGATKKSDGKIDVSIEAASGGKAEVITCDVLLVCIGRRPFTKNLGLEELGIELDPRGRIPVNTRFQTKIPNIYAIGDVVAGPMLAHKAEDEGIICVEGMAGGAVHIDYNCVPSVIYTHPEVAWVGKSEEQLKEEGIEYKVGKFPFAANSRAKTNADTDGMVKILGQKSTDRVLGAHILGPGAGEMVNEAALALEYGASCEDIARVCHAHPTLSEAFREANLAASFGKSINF

[2] = target: T2, bovine thioredoxin reductase (Bos taurus, UniProt O62768); assay: Bovine thioredoxin reductase DTNB assay; assay type: biochemical; conditions: for IC50: DTNB assay, 100 μM NADPH
T2 sequence (O62768 1-499): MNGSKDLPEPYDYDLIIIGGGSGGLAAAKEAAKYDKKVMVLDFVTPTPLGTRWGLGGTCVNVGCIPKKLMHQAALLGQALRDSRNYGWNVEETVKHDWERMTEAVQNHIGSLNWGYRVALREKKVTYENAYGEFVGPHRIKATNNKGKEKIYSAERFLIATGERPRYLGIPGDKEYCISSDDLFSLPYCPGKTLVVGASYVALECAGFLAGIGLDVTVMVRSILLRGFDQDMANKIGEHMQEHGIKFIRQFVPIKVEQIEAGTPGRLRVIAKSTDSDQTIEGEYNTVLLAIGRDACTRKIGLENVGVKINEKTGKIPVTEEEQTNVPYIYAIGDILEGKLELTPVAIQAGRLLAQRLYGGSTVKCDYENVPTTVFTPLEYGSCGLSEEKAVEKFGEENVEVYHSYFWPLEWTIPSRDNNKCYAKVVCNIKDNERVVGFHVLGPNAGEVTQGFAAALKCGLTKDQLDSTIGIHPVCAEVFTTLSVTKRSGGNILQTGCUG

[3] = target: T3, bovine Lpd (Bos taurus, UniProt F1N206); assay: Bovine Lpd DTNB assay; assay type: biochemical
T3 sequence (F1N206 36-509): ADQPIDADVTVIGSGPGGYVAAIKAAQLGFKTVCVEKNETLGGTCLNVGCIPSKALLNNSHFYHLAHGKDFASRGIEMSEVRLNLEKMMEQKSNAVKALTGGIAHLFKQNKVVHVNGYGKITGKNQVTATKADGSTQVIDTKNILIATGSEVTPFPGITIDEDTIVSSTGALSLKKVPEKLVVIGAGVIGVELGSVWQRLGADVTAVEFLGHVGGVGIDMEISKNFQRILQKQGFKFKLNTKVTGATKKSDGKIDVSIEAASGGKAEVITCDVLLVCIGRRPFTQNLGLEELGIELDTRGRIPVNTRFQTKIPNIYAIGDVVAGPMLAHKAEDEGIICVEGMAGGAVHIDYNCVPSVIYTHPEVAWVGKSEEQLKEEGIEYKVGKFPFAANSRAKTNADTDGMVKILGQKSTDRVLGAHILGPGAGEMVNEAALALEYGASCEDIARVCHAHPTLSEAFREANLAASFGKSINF

[4] = target: T4, porcine PDHC (Sus scrofa, UniProt P09623); assay: Porcine PDHC assay; assay type: biochemical
T4 sequence (P09623 36-509): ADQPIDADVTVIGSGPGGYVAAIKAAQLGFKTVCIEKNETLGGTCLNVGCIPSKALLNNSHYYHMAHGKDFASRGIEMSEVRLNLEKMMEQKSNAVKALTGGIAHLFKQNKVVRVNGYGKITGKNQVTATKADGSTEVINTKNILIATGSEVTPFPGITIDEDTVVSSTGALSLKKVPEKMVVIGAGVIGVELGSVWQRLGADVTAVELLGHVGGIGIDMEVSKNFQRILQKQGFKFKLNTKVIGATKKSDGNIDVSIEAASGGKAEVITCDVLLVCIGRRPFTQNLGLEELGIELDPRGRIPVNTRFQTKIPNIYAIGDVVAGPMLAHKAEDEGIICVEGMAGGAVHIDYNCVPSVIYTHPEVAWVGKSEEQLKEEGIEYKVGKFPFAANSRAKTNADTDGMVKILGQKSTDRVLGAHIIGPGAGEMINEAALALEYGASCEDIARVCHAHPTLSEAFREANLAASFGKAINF

[5] = tested on: mouse bone marrow macrophages; assay: cells; assay type: cell-based; conditions: for EC50: read-out: BMM EC50 (concentration at which viability is reduced to 50%)
[6] = target: T1, human Lpd; assay: Human Lpd dihydrolipoamide-NAD+ spectrophotometric assay; assay type: biochemical; conditions: dihydrolipoamide and NAD+ as substrates, up to 100 μM
[7] = target: T5, Mtb Lpd (Mycobacterium tuberculosis, UniProt P9WHH9)
T5 sequence (P9WHH9 1-464): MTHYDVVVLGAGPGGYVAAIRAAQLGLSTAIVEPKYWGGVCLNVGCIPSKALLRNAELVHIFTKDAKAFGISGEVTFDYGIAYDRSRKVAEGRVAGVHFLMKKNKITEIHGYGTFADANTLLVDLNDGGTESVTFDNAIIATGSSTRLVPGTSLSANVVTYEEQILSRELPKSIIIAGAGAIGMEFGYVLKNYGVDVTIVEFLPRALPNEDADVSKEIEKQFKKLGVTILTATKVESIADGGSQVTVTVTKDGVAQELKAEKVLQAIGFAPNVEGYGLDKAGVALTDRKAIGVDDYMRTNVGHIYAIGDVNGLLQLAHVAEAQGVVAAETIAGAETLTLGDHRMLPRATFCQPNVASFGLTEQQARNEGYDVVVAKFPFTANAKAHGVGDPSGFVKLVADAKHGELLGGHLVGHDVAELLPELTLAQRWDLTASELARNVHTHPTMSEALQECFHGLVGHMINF

[8] = target: T5, Mtb Lpd; remark: listed apart in the source
[9] = target: T6, PDHC activity in Mtb lysates (Mycobacterium tuberculosis, UniProt P9WHH9); assay type: biochemical
T6 sequence (P9WHH9 1-464): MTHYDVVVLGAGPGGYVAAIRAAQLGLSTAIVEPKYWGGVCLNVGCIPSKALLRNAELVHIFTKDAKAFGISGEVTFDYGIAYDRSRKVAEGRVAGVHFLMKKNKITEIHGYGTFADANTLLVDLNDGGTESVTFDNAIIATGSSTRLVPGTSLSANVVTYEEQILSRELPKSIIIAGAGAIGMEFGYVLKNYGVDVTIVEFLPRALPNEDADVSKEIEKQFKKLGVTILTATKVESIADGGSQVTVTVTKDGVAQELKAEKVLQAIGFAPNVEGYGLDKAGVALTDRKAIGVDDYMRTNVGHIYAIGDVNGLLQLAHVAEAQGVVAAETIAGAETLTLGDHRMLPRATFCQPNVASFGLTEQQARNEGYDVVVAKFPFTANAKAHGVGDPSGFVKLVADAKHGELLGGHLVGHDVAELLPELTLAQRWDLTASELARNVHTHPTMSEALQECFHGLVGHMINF

[10] = target: T5, Mtb Lpd; remark: listed apart in the source
[11] = target: T7, Mtb PDHC (Mycobacterium tuberculosis, UniProt P9WHH9); conditions: read-out: IC50 Mtb PDHC; PDHC assay
T7 sequence (P9WHH9 1-464): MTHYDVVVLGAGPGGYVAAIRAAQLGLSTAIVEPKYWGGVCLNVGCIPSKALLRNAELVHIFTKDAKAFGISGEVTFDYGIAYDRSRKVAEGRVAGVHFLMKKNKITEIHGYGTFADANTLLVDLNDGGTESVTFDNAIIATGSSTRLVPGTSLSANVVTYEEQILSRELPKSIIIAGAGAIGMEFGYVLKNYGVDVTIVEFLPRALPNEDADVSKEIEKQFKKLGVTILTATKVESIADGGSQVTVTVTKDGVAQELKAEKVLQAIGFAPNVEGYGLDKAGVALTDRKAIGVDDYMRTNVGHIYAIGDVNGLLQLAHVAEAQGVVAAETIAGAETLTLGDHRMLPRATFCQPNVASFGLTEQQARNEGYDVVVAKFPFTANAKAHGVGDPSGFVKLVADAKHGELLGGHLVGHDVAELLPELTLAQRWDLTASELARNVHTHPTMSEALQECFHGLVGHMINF

[12] = target: the molecule itself; assay: crystal structure

Molecule: COc1ccc(C(=O)N2CCC3(CC2)C(=O)N(CC(=O)NCCc2ccc(Cl)cc2Cl)CN3c2ccccc2)c(OC)c1 [compound 5, N-(2,4-dichlorophenethyl)-2-(8-(2,4-dimethoxybenzoyl)-4-oxo-1-phenyl-1,3,8-triazaspiro[4.5]decan-3-yl)acetamide]
- IC50 [1]: > 100 µM
- Inhibition of human Lpd (words) [1]: did not produce any measurable inhibition
- Inhibition of human Lpd (words) ([1]; listed as Compound 5): no inhibition
- Inhibition of bovine thioredoxin reductase ([2]; Fig. 2C): minimally inhibits
- IC50 ([2]; IC50 bTR): 20 µM
- IC50 [3]: 100 µM
- Inhibition of bovine Lpd ([3]; Fig. 2C): minimally inhibits
- IC50 [4]: 100 µM
- Inhibition of porcine PDHC ([4]; Fig. 2C): minimally inhibits
- Mouse bone marrow macrophage survival ([5]; 100 μM (limit of solubility)): 80%
- Toxicity against primary mouse bone marrow macrophages ([5]; Fig. 2C): no toxicity
- EC50 ([5]; Mus musculus, Bone marrow macrophage, 24 h): > 100 µM
- Inhibition of human Lpd, physiological direction [6]: No inhibition
- Mode of inhibition with respect to NADH ([7]; variable NADH 3.33 to 100 μM): noncompetitive
- Mode of inhibition with respect to lipoamide ([7]; variable lipoamide): noncompetitive
- Inhibition of Mtb Lpd in dihydrolipoamide-NAD+ assay [8]: inhibited
- Mode of inhibition with respect to NAD+ ([8]; variable NAD+ 25 μM to 2.5 mM): noncompetitive

Molecule: COc1ccc(C(=O)N2CCC3(CC2)C(=O)N(CC(=O)NCc2cccc(C(F)(F)F)c2)CN3c2ccccc2)c(OC)c1 [compound 4, 2-(8-(2,4-dimethoxybenzoyl)-4-oxo-1-phenyl-1,3,8-triazaspiro[4.5]decan-3-yl)-N-(3-(trifluoromethyl)benzyl) acetamide]
- Inhibition of human Lpd (words) [1]: did not inhibit
- IC50 ([1]; read-out: IC50 hLpd, DTNB assay): > 100 µM
- IC50 ([2]; read-out: IC50 bTR): > 100 µM
- IC50 ([3]; read-out: IC50 bLpd, DTNB assay): > 100 µM
- IC50 ([4]; read-out: IC50 pPDHC, PDHC assay): 100 µM
- EC50 [5]: > 100 µM
- Inhibition of human Lpd, physiological direction [6]: No inhibition
- IC50 for Lpd activity in Mtb extracts measured by inhibition of PDHC activity [9]: low micromolar range
- IC50 ([10]; read-out: IC50 Mtb Lpd + BSA, DTNB assay with 100 μg/ml bovine serum albumin): 2.1 µM
- IC50 ([10]; read-out: IC50 Mtb Lpd, DTNB assay): 2 µM
- IC50 ([7]; read-out: IC50 Mtb Lpd NADH-lipoamide, NADH-lipoamide assay): 2 µM
- IC50 [11]: 7.2 µM
- Inhibition of Mtb Lpd in dihydrolipoamide-NAD+ assay [8]: inhibited

B1: Mycobacterium tuberculosis lipoamide dehydrogenase (Lpd), residues 1-464 (enzyme)
chain: MTHYDVVVLGAGPGGYVAAIRAAQLGLSTAIVEPKYWGGVCLNVGCIPSKALLRNAELVHIFTKDAKAFGISGEVTFDYGIAYDRSRKVAEGRVAGVHFLMKKNKITEIHGYGTFADANTLLVDLNDGGTESVTFDNAIIATGSSTRLVPGTSLSANVVTYEEQILSRELPKSIIIAGAGAIGMEFGYVLKNYGVDVTIVEFLPRALPNEDADVSKEIEKQFKKLGVTILTATKVESIADGGSQVTVTVTKDGVAQELKAEKVLQAIGFAPNVEGYGLDKAGVALTDRKAIGVDDYMRTNVGHIYAIGDVNGLLQLAHVAEAQGVVAAETIAGAETLTLGDHRMLPRATFCQPNVASFGLTEQQARNEGYDVVVAKFPFTANAKAHGVGDPSGFVKLVADAKHGELLGGHLVGHDVAELLPELTLAQRWDLTASELARNVHTHPTMSEALQECFHGLVGHMINF
- binding result [12]: binds
